Source: BindingDB's records for doi:10.1016/j.chembiol.2009.09.012 (University of California Irvine, 2009)

Molecular target: T1, Monoglyceride lipase (Rattus norvegicus, UniProt Q8R431)
T1 sequence (Q8R431 whole entry): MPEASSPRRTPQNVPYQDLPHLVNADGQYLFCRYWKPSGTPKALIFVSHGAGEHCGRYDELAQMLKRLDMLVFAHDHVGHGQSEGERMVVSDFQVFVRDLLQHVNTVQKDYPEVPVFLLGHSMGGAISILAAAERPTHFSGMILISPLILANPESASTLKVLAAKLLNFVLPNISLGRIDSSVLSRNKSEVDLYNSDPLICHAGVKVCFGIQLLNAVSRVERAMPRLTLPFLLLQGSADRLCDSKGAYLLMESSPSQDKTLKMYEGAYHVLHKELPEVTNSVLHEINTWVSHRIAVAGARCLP
Test: Enzyme Assay
Conditions: 37 °C
Protocol: Purified recombinant rat MGL was prepared and enzyme activity was assayed.

Structure (SMILES) | IC50
Cc1c(O)c(O)cc2c1CC=C1[C@@]2(C)CC[C@@]2(C)C3C[C@](C)(C(=O)O)CC[C@]3(C)CC[C@]12C (stereo not given in full) [Dihydrocelastrol] | 15 µM
C=c1c(O)c(O)cc2c1=CC=C1[C@@]2(C)CC[C@@]2(C)C3C[C@](C)(C(=O)OC)CC[C@]3(C)CC[C@]12C (stereo not given in full) [Pristimerin] | 0.093 µM
C=c1c(O)c(O)cc2c1=CC=C1[C@@]2(C)CC[C@@]2(C)[C@@H]3C[C@](C)(C(=O)O)CC[C@]3(C)CC[C@]12C | 1.6 µM
COC(=O)[C@]1(C)CC[C@]2(C)CC[C@]3(C)C4=CCc5c(cc(O)c(O)c5C)[C@]4(C)CC[C@@]3(C)C2C1 (stereo not given in full) [Pristimerol] | 4 µM
CC(=O)Oc1cc2c(c(C)c1OC(C)=O)CC=C1[C@@]2(C)CC[C@@]2(C)[C@@H]3C[C@](C)(C(=O)O)CC[C@]3(C)CC[C@]12C [Dihydrocelastryl diacetate] | 15 µM
